Consider three compounds from ChEMBL document CHEMBL3137667, “[Drug-induced liver injury; fourteenth updated edition of the bibliographic database of liver injuries and related drugs]” (Gastroenterol Clin Biol, 2004).

Data set [1] in a line: Proposed mechanism(s) of liver damage. [column 'MEC' in source]. To be noted: human.
The conditions of data set [2]: human, serum.
For data set [3] the following is noted: human, serum. The source holds these as a separate data set.
For data set [4] the following is noted: human.
A short description of data set [5]: Highest frequency of moderate liver toxicity observed during clinical trials, expressed as a percentage. [column '% BIOL' in source]. To be noted: human.
The conditions of data set [6]: human. The source holds these as a separate data set.
For data set [7] the following is noted: human. This is another data set of the same source.
The conditions of data set [8]: human. The source holds these as a separate data set.
For data set [9] the following is noted: human. This is another data set of the same source.
A short description of data set [10]: Presence of at least one case with successful reintroduction. [column 'REINT' in source]. To be noted: human.
Data set [11] is described as follows: Times to onset, minimal and maximal, observed in the indexed observations. [column 'DELAI' in source]. To be noted: human.
For data set [12] the following is noted: human. The source holds these as a separate data set.
Data set [13] in a line: Comments (NB not yet translated). [column 'COMMENTAIRES' in source]. The settings on record: human.
For data set [14] the following is noted: human. This is another data set of the same source.
A short description of data set [15]: Highest frequency of acute liver toxicity observed during clinical trials, expressed as a percentage. [column '% AIGUE' in source]. The settings on record: human.
For data set [16] the following is noted: human. The source holds these as a separate data set.
The conditions of data set [17]: human. This is another data set of the same source.
For data set [18] the following is noted: human, serum, 4383 h.
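Throughout, for Hepatotoxicity (association with vascular disease): count of indexed literature references reporting vascular liver injury in humans, e.g. peliosis hepatitis, hepatic veno-occlusive disease or Budd-Chiari syndrome.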
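Throughout, for Hepatotoxicity (benign tumour): value is a count of indexed literature references citing a benign tumour confirmed by histopathology.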
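Throughout, for Hepatotoxicity (choleostasis): human cholestatic liver injury, shown by histopathology or by peak ALT or AST elevation over alkaline phosphatase ratio below 2, value counts indexed literature reports.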
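Throughout, for Hepatotoxicity (chronic liver disease): chronic liver injury confirmed by histopathology or persistently raised serum aminotransferase activity beyond 6 months, value given as the count of indexed literature references.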
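Throughout, for Hepatotoxicity (cirrhosis): value is a count of indexed literature references reporting cirrhosis confirmed by histopathology.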
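Throughout, for Hepatotoxicity (cytolytic): human cytolytic liver injury, shown by histopathology or by a ratio above 5 of peak ALT or AST elevation to alkaline phosphatase elevation, value counts indexed references.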
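Throughout, for Hepatotoxicity (granulomatous hepatitis): value is a count of indexed literature references reporting granulomatous liver disease confirmed by histopathology.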
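Throughout, for Hepatotoxicity (malignant tumour): malignant tumour confirmed by histopathology, value gives the count of indexed literature references reporting it.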
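Throughout, for Hepatotoxicity (severe hepatitis): human clinical data: severe hepatitis, meaning potentially life-threatening liver failure or clinically observed cases, the value counts how many indexed literature references report it.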
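Throughout, for Hepatotoxicity (steatosis): steatosis confirmed by histopathology, value is the count of indexed references.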

For the compound `NC(=O)N1c2ccccc2C=Cc2ccccc21` [CARBAMAZEPINE], in data set [1], the “Hepatotoxicity (mechanism)” value was “Allergic, Reactive metabolite”. For the same compound, the results for the “Hepatotoxicity (moderate)” value in data set [2] and in [5] (Liver) were 40 and 23.8%, respectively. Besides, the entries for the “Hepatotoxicity (acute)” value in data set [3] and in [15] (Liver) were 73 and 0.2%, respectively. The “Hepatotoxicity (steatosis)” value in data set [4] came to 2. Also, the “Hepatotoxicity (choleostasis)” value in data set [6] was 41. For the same compound, the “Hepatotoxicity (cirrhosis)” value in data set [7] is listed as 1. For the same compound, the “Hepatotoxicity (malignant tumour)” value in data set [8] was 1. Also, the “Hepatotoxicity (cytolytic)” value in data set [9] came to 38. In data set [10], the “Hepatotoxicity (successful reintroduction)” value is on record as “yes”. For the same compound, the “Hepatotoxicity (time to onset)” value in data set [11] was found to be 1 day - 8 years. Further, the “Hepatotoxicity (severe hepatitis)” value in data set [12] (Liver) worked out at 10. For the same compound, in [13], the “Hepatotoxicity (comment)” value is “AC_ANTI-M/-N/-ML CHOLANGITE DUCTOPENIE #CBP REACTIVATION_HSV6”. In addition, in [14], the “Hepatotoxicity (association with vascular disease)” value turned out to be 0. In data set [16], the “Hepatotoxicity (benign tumour)” value was found to be 0. Besides, the “Hepatotoxicity (granulomatous hepatitis)” value in [17] turned out to be 12. In addition, the “Hepatotoxicity (chronic liver disease)” value in [18] worked out at 4.

In the case of `CC1(C)S[C@@H]2[C@H](NC(=O)C(C(=O)O)c3ccccc3)C(=O)N2[C@H]1C(=O)O` (some centres undefined) [CARBENICILLIN], the “Hepatotoxicity (mechanism)” value in data set [1] is on record as “Dose-dependant”. Further, the “Hepatotoxicity (moderate)” value in [2] amounted to 13; in data set [5] it was 56%. The “Hepatotoxicity (acute)” value in data set [3] came out at 5; in data set [15], 0.7%. Also, the “Hepatotoxicity (steatosis)” value in data set [4] is reported as 0. The “Hepatotoxicity (choleostasis)” value in data set [6] was 0. Further, in data set [7], the “Hepatotoxicity (cirrhosis)” value stood at 0. Further, the “Hepatotoxicity (malignant tumour)” value in data set [8] is reported as 0. For the same compound, the “Hepatotoxicity (cytolytic)” value in data set [9] is given as 5. Besides, the “Hepatotoxicity (successful reintroduction)” value in data set [10] is on record as “yes”. Further, the “Hepatotoxicity (time to onset)” value in data set [11] worked out at 4 days - 3 months. For the same compound, in data set [12], the “Hepatotoxicity (severe hepatitis)” value was found to be 0. Further, in data set [13], the “Hepatotoxicity (comment)” value was “RC/TICARCILLINE”. The “Hepatotoxicity (association with vascular disease)” value in [14] is listed as 0. Further, the “Hepatotoxicity (benign tumour)” value in data set [16] was 0. Further, in [17], the “Hepatotoxicity (granulomatous hepatitis)” value is 0. In [18], the “Hepatotoxicity (chronic liver disease)” value worked out at 0.

As for `CCOC(=O)n1ccn(C)c1=S` [CARBIMAZOLE], the “Hepatotoxicity (mechanism)” value in [1] is recorded as “Allergic”. The entries for the “Hepatotoxicity (moderate)” value in [2] and in [5] were 2 and 0%, respectively. The “Hepatotoxicity (acute)” value in data set [3] was found to be 18; in data set [15], 0%. The “Hepatotoxicity (steatosis)” value in [4] is 2. Also, the “Hepatotoxicity (choleostasis)” value in [6] is recorded as 14. In addition, the “Hepatotoxicity (cirrhosis)” value in [7] worked out at 0. In addition, the “Hepatotoxicity (malignant tumour)” value in data set [8] stood at 0. In data set [9], the “Hepatotoxicity (cytolytic)” value stood at 5. Besides, the “Hepatotoxicity (successful reintroduction)” value in data set [10] is recorded as “yes”. The “Hepatotoxicity (time to onset)” value in data set [11] came to 1 day - 5 years. Besides, the “Hepatotoxicity (severe hepatitis)” value in data set [12] worked out at 3. In addition, the “Hepatotoxicity (comment)” value in [13] is “RC/METHIMAZOLE/BENZYLTHIOURACILE”. Also, the “Hepatotoxicity (association with vascular disease)” value in [14] stood at 0. For the same compound, the “Hepatotoxicity (benign tumour)” value in [16] worked out at 0. Also, the “Hepatotoxicity (granulomatous hepatitis)” value in data set [17] is recorded as 1. Further, the “Hepatotoxicity (chronic liver disease)” value in [18] is reported as 0.
